Tested on: TUSC3 expression in the hypermethylated MZ6 cell line
Assay: Restoration of TUSC3 expression by DNA demethylation in ovarian cancer cell lines (real time RT-PCR)
Type: cell-based, human
Conditions: 72-hour treatment
Method: In addition, 32 ovarian cancer cell lines were studied, which were started from ovarian cancer tissue samples of 28 patients and cultivated as described (Mobus V1 Gerharz C D, Press U, et al, Morphological, immunohistochemical and biochemical characterization of 6 newly established human ovarian carcinoma cell lines. Int J Cancer. 1992; 52:76-84).
For bisulfite treatment, 1 μg genomic DNA was digested with the restriction enzymes Hind III and Xba I, precipitated, dissolved and denatured for 20 minutes in 0.35 M NaOH. Then, the DNA was treated in 8 cycles (2 hrs. 75° C. and 1 min. 95° C.) with 1.75 M sodium bisulfite, 5.23 M urea and 0.52 mM hydroquinone in a PCR cycler. Using the QIAEX II Gel Extraction Kit (Qiagen, Hilden, Germany), the DNA was cleaned and the reaction was ended with 0.32 M NaOH (20 min. 37° C.). Finally, the DNA was precipitated with 1 μl glycogen with NH4 acetate EtOH as the carrier, rinsed with 70% EtOH and dissolved in 40 μl H2O. […] The PCR products were analyzed on 3% agarose gel, stained with ethidium bromide. […] DNA demethylation of the cancer cell lines was carried out by a 72-hour treatment with 1 and 2.5 μM 5-aza-deoxycytidine (Sigma-Aldrich, St. Louis, Mo., USA) in cell culture medium, and the relative TUSC3 expression was evaluated by real time RT-PCR as described below. […]

Nc1ncn([C@H]2C[C@H](O)[C@@H](CO)O2)c(=O)n1 [5-aza-deoxycytidine]
TUSC3 expression, times greater than sham-treated samples (relative to B-2-microglobulin) (2.5 μM, MZ6 cell line, sham-treated below detection limit, mean of three experiments): at least 9.5 times | Restoration of TUSC3 expression (1 and 2.5 μM, hypermethylated MZ6 cell line, concentration-dependent): restoration of TUSC3 expression
